# According to patent EP0107165A1, “Substituted 9H-8-oxo-pyrimido(2,1-f)purine-2,4-diones, process for their production and pharmaceutical compositions containing them” (SCHERING CORPORATION, priority 1982, dated 1984):
# How the values were obtained:
# RPAR Synovitis = experiment: Reversed Passive Arthus-Reaction (RPAR) Synovitis technique; assay type: in vivo, male Lewis rats; settings: dosage of 50 mpk, oral, split dose (half one hour before, half three hours after lesion induction); delta synovial weight about 17 hours after lesion induction; Lewis rat
# Protocol: The anti-inflammatory potential of the compounds of the present invention may be determined by the Reversed Passive Arthus-Reaction (RPAR) Synovitis technique as set forth below using male Lewis rats (obtained from Charles River Breeding Laboratories) weighing 200-250 g. The potency of the compounds is determined using indo- methacin as the standard. On the basis of the test results, a dosage range of about 0.1 milligrams per kilogram of body weight per day to about 50 milligrams per kilogram of body weight per day in divided doses at about 4 hour intervals is recommended. For the preferred compounds of the invention tested, it is considered that the compounds are effectively non-toxic at the dose- rates indicated for treatment of inflammatory conditions. […]
# The following morning (about 17 hours after lesion induction) the rat is killed and both knee joints are exposed. […] Differences in delta synovial weight between lesion controls and drug- treated rats are evaluated for statistical significance with an analysis of variance. Relative potencies are determined with a linear regression analysis. […]
# [1] = Ulcerogenicity test (oral administration); assay type: in vivo; settings: dosages as high as 100mpk
Structure (SMILES),percentage inhibition of inflammation (I) (RPAR Synovitis) [%],ulcerogenic [1]
"CCCc1c(O)n(Cc2ccccc2)c2nc3c(c(=O)n(C)c(=O)n3C)n2c1=O [A, 9-benzyl-1,3-dimethyl-8-hydroxy-7-n-propyl-9H-6-. oxo-pyrimido[2,1-f]purine-2,4-dione]",46,not to be ulcerogenic
"CCCCc1c(O)n(Cc2ccccc2)c2nc3c(c(=O)n(C)c(=O)n3C)n2c1=O [B, 9-benzyl-1,3-dimethyl-8-hydroxy-7-(n-butyl)-9H-6-oxo-pyrimido[2,1-f]purine-2,4-dione]",48,–
